Measurements taken from ChEMBL document CHEMBL3792378, “Design, synthesis and cytotoxicity of pyrano[4,3-b]indol-1(5H)-ones: A hybrid pharmacophore approach via gold catalyzed cyclization” (Bioorg Med Chem Lett, 2016).
pIC50: −log10 of the molar value.

Test system: HeLa
Assay: Cytotoxicity against human HeLa cells incubated for 48 hrs by MTT assay
Format: functional, cell-based

Row | SMILES | pIC50
1 | CCn1c2ccccc2c2c(=O)oc(-c3ccccc3)cc21 | 5.85
2 | CCCCc1cc2c(c(=O)o1)c1ccccc1n2C | 5.72
3 | CCCCc1cc2c(c(=O)o1)c1ccccc1n2CC | 5.72
4 | CCCCCc1cc2c(c(=O)o1)c1ccccc1n2Cc1ccccc1 | 5.79
5 | O=c1oc(-c2ccccc2)cc2c1c1ccccc1n2Cc1ccccc1 | 6.16
6 | O=c1oc(-c2ccccc2)cc2[nH]c3ccccc3c12 | 5.59
7 | CC(C)(O)c1cc2c(c(=O)o1)c1ccccc1n2Cc1ccccc1 | 5.69
8 | CCCCn1c2ccccc2c2c(=O)oc(-c3ccccc3)cc21 | 5.95
9 | O=c1oc(CCCO)cc2c1c1ccccc1n2Cc1ccccc1 | 5.65
10 | Cn1c2ccccc2c2c(=O)oc(-c3ccccc3)cc21 | 5.91
11 | CCCCc1cc2c(c(=O)o1)c1ccccc1n2Cc1ccccc1 | 5.76
